Calls of active or inactive are those of the source.
Assays:
[1] = NIH-3T3 fibroblast cytotoxicity, dose response, cytotoxicity control, cell-based, fluorescence, Alamar Blue, secondary assay (AID 2327); type: functional;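 further: NIH-3T3 mouse fibroblasts cultured with fluconazole at 8 µg/mL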
[2] = A cytotoxicity screen of small molecule inhibitors of the PhoP region in Salmonella typhi identified in the primary screen. [Related pubchem assays: 1850, 1864, 1985 ]; type: functional
[3] = system: Streptococcus sp. 'group A'; test: growth inhibition of control SK(-) GAS strain, dose response, counter-screen for streptokinase expression inhibitor project, luminescence, kanamycin, BacTiterGlo, confirmation (AID 1900); type: functional, organism-based
[4] = target: T1, Streptokinase A (Streptococcus pyogenes serotype M1, UniProt P10520); test: S. pyogenes streptokinase expression inhibitors, potency, dose response, plasminogen activation absorbance, OD405 (AID 1914); type: functional, Streptococcus pyogenes M1 GAS;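 further: secreted streptokinase activity via plasminogen activation per viability signal from cell pellet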
T1 sequence (P10520 whole entry): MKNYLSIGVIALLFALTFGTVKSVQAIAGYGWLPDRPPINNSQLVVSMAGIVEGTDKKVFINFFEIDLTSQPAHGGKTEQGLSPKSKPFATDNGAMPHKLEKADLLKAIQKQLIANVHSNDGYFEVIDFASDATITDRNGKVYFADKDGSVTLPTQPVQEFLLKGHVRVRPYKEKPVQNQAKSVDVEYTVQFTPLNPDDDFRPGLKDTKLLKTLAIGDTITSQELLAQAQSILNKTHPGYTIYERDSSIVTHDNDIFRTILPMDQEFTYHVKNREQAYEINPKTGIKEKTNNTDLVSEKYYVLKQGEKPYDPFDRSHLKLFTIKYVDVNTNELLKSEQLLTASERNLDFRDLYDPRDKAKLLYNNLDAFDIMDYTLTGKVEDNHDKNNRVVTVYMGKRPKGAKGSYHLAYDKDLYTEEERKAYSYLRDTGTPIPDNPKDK

[5] = C. albicans growth with fluconazole, confirmation, fluorescence, retest (AID 2467); type: functional, cell-based
[6] = system: Streptococcus; test: Group A Streptococcus viability loss, dose response, counter-screen for streptokinase expression inhibitor project, luminescence, BacTiterGlo (AID 1915); type: functional, organism-based;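 further: potency for reduction of bacterial viability or growth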
[7] = target: Trypsin (Sus scrofa, UniProt P00761); test: porcine trypsin inhibitors, dose response, selectivity assay for Rce1 protease inhibitor project, biochemical, quenched peptide fluorescence, cherry-pick (AID 488789)
[8] = target: T2, Bcl-2-related protein A1 (Mus musculus, UniProt Q07440); type: functional;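 further: confirmatory dose–response counterscreen on Bfl-1, used to check hits from a UBC13 polyubiquitin inhibitor campaign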
T2 sequence (Q07440 whole entry): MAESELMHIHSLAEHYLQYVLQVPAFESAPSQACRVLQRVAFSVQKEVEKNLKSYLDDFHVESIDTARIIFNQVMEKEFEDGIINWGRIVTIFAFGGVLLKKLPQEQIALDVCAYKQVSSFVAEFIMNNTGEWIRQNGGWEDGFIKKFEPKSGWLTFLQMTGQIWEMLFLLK

[9] = target: T3, Ubiquitin-conjugating enzyme E2 N (Homo sapiens, UniProt P61088); type: functional
T3 sequence (P61088 whole entry): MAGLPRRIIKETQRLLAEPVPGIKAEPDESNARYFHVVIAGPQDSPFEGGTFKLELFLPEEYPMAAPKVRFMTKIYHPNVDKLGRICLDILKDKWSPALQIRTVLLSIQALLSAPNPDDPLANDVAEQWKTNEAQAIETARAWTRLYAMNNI

[10] = Cytotoxicity screening for potential Inhibitors of Bacterial Capsule Biogenesis. [Related pubchem assays (depositor defined):AID488970]; type: functional
[11] = target: T3, Ubiquitin-conjugating enzyme E2 N; type: functional; remark: listed apart in the source
[12] = target: T4, Endoribonuclease toxin MazF (Escherichia coli K-12, UniProt P0AE70); test: MazF toxin RNase activators, dose response, biochemical, fluorescence, single-stranded RNA substrate, uHTS hits (AID 588481); type: functional
T4 sequence (P0AE70 whole entry): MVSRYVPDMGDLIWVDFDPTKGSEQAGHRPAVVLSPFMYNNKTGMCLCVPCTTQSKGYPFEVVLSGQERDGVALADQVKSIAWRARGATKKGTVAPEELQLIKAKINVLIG

[13] = target: T4, Endoribonuclease toxin MazF; test: fluorescent RNA oligo signal without MazF, dose response, counter-screen for MazEF activator project, biochemical, fluorescence, single-stranded RNase substrate (AID 588502); type: functional
[14] = target: T5, CAAX prenyl protease 2 (Homo sapiens, UniProt Q9Y256); test: human Rce1 protease inhibitors, dose response, biochemical, yeast membranes, quenched-peptide fluorescence, cherry-pick (AID 588849)
T5 sequence (Q9Y256 whole entry): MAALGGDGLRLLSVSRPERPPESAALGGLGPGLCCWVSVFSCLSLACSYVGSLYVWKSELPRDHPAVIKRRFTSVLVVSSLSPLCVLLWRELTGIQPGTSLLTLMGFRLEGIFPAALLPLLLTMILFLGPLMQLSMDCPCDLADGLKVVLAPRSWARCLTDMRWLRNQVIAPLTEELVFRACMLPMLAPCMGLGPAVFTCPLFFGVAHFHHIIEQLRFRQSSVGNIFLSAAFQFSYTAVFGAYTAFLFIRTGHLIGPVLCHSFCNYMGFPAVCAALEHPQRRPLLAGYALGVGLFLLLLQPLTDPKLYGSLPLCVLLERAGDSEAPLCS

[15] = target: T6, Rac GTPase-activating protein 1 (Homo sapiens, UniProt Q9H0H5); test: MgcRacGAP GTPase-activating activity inhibitors, confirmation, biochemical, ADP Hunter fluorescence, primary and confirmatory (AID 624330); type: functional
T6 sequence (Q9H0H5 whole entry): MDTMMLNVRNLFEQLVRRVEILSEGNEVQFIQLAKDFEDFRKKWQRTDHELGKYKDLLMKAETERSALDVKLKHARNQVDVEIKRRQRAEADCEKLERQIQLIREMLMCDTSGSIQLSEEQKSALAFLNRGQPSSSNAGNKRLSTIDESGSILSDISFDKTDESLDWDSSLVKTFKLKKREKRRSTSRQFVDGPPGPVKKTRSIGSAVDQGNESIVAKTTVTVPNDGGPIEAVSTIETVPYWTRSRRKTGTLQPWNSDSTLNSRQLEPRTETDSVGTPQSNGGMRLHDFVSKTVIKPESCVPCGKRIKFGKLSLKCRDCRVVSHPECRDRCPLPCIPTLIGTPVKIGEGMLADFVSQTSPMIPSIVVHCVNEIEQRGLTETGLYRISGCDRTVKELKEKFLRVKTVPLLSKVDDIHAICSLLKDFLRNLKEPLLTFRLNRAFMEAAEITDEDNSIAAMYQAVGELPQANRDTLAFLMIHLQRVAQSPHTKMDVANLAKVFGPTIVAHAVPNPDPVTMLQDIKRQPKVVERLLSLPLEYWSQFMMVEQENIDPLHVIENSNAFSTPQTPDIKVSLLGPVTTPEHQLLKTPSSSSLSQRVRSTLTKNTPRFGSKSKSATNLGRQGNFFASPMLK

[16] = target: T7, DNA repair protein RAD52 homolog (Homo sapiens, UniProt P43351); type: functional, biochemical
T7 sequence (P43351 whole entry): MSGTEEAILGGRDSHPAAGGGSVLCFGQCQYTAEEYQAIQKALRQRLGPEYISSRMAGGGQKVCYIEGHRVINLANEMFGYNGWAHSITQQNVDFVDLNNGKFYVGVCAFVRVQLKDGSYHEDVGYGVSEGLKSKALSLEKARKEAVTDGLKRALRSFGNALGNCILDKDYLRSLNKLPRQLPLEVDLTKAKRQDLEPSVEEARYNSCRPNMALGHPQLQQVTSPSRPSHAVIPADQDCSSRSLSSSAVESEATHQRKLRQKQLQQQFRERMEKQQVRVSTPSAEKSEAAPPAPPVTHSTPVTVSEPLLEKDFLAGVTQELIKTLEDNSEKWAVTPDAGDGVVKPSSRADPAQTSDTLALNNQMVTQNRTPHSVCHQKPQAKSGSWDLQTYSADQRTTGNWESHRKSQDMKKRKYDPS

[17] = system: Escherichia coli; test: microbe, parasite or virus in culture
[18] = target: T8, Heat shock factor protein 1 (Mus musculus, UniProt P38532); test: inhibition of MG132-induced HSE-luciferase signal, confirmation, cell-based, NIH3T3, luminescence, dose retest (AID 2382); type: functional;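 further: NIH3T3 fibroblasts with HSF1-driven luciferase reporter stressed by proteasome inhibitor MG132; luminescence from HSF1-driven luciferase expression after 8 hours of MG132 stress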
T8 sequence (P38532 whole entry): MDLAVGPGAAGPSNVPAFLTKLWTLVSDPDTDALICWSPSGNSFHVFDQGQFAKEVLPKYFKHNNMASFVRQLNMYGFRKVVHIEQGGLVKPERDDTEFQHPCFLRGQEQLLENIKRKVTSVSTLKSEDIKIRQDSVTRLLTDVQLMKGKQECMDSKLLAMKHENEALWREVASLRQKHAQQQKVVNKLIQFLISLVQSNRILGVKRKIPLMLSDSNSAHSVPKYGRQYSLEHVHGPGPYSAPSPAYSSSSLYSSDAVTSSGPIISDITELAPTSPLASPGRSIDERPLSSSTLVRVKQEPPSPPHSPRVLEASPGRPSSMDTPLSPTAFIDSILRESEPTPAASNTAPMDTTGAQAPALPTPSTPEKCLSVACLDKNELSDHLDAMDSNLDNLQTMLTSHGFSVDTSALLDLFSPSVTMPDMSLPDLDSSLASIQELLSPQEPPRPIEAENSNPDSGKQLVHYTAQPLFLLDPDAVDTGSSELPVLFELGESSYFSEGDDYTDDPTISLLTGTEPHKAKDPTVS

[19] = growth suppression of PTEN-null colon cells, dose response, cell-based, HCT116 PTEN knockout (AID 1047); type: functional;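 further: HCT116 colon tumor cells with PTEN knocked out; cells exposed to compound for 60 hours before readout; potency for loss of cell viability measured by luminescence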
[20] = growth suppression of beta-catenin-knockout colon cells, dose response, cell-based, HCT116, human colon tumor (AID 1045); type: functional;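 further: HCT116 colon tumor cells with beta catenin knocked out; cells exposed to compound for 60 hours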
[21] = target: T9, Sphingosine 1-phosphate receptor 4 (Homo sapiens, UniProt O95977); test: Fluorescence dose response cell-based high throughput screening assay for antagonists of the Sphingosine 1-Phosphate Receptor 4 (S1P4). [Related pubchem assays: 1524 (Confirmation in triplicates.), 1510 (Primary screen.)]; type: functional
T9 sequence (O95977 whole entry): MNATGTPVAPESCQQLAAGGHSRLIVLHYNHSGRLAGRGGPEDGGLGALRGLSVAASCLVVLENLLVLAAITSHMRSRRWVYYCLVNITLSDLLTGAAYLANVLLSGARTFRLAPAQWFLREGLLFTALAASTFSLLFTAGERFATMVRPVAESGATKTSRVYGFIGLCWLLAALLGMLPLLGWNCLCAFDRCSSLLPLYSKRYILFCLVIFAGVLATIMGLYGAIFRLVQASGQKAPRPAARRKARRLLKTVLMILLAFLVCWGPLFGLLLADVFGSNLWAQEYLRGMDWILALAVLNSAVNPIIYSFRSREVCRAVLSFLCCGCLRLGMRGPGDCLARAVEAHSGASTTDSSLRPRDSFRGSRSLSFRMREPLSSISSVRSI

[22] = target: Sphingosine 1-phosphate receptor 1 (Homo sapiens, UniProt P21453); type: functional;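 further: Tango beta-arrestin reporter U2OS cells stimulated with S1P near its EC80; inhibitor potency meaning antagonism of receptor activation by the natural agonist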
[23] = target: Neurotensin receptor type 1 (Homo sapiens, UniProt P30989); type: functional;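 further: Image-based confirmatory dose-response assay measuring agonist activity at NTR1; NTR1-expressing U2OS osteosarcoma cells imaged for beta-arrestin GFP spot formation; agonist potency where compounds increase beta-arrestin recruitment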
[24] = target: T10, Microphthalmia-associated transcription factor (Homo sapiens, UniProt O75030); test: TRPM1 promoter luciferase signal decrease, dose response, MITF inhibitor project, cell-based, SK-MEL-5, cherry-picked, set 3 (AID 493073); type: functional
T10 sequence (O75030 whole entry): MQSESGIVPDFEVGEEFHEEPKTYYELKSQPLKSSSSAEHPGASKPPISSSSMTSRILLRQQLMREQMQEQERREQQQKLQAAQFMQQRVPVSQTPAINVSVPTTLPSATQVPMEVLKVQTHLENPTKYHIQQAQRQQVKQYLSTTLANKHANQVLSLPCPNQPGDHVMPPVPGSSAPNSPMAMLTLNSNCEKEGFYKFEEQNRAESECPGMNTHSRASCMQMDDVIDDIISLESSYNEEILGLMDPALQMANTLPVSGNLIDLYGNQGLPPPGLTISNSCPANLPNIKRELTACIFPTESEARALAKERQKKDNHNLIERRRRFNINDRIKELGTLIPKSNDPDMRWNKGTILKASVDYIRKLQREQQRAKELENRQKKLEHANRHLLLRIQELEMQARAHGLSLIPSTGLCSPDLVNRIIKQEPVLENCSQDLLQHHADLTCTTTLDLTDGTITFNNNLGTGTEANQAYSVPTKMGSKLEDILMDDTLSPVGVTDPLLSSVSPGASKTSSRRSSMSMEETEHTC

[25] = Shn3 3'UTR reporter inhibitors, dose response, cell-based, Clone20 osteoblasts, firefly luciferase, cherry-picked (AID 624132); type: functional;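 further: firefly luciferase luminescence from reporter carrying the Shn3 3'UTR in osteoblasts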
[26] = HepG2 cell cytotoxicity, dose response, cytotoxicity control for Shn3 inhibitor project, CellTiter-Glo, cherry-picked (AID 624134); type: functional, cell-based
[27] = control 3'UTR Renilla luciferase suppression, dose response, counter-screen for Shn3 inhibitor project, cell-based, Clone20-Shn3RL, cherry-picked (AID 624133); type: functional

Chain of Trypsin (P00761 whole entry): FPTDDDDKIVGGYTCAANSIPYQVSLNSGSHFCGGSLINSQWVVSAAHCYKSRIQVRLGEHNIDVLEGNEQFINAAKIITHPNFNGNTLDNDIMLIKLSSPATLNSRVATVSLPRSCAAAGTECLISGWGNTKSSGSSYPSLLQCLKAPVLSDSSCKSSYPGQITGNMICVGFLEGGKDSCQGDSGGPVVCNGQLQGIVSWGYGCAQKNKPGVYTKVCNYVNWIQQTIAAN
Chain of Neurotensin receptor type 1 (P30989 whole entry): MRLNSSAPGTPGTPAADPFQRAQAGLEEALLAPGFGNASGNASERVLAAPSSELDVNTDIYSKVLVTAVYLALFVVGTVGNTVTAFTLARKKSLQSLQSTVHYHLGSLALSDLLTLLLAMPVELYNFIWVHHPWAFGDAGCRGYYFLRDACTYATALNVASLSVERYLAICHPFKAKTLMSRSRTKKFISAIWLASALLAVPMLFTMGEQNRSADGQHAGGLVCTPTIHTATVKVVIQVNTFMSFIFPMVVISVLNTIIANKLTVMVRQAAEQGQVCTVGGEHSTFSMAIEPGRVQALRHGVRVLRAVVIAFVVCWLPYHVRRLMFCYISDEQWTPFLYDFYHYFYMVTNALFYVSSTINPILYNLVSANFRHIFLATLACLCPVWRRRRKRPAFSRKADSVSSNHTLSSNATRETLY
Chain of Sphingosine 1-phosphate receptor 1 (P21453 whole entry): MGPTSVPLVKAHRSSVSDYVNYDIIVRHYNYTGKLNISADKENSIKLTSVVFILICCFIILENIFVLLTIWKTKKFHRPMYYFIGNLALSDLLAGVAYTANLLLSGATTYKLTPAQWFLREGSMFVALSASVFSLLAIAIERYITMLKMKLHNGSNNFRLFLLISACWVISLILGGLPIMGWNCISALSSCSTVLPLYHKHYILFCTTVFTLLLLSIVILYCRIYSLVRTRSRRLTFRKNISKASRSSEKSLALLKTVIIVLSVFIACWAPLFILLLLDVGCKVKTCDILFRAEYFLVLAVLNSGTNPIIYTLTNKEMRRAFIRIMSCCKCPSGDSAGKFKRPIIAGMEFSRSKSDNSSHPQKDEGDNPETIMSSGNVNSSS

N=C(N)c1ccc(/C=C/c2ccc(C(=N)N)cc2O)cc1
EC50 [1]: > 150 µM (inactive) | EC50 [2]: > 50 µM (active) | EC50 [3]: 1.43 µM (active) | EC50 [4]: 20 µM (active) | EC50 [5]: 0.529 µM (active) | EC50 [6]: > 150 µM (not active) | AC50 [7]: 3.15 µM (active) | IC50 [8]: > 20 µM (inactive) | IC50 [9]: 3.61 µM (active) | CC50 [10]: > 100 µM (active) | IC50 [11]: 2.8 µM (active) | EC50 [12]: 4.77 µM (active) | EC50 [13]: > 99 µM (inactive) | AC50 [14]: > 100 µM (inactive) | IC50 [15]: 39 µM (active) | AC50 [16]: 0.708 µM (active) | AC50 [17]: 37.7 µM (active)

COc1ccc(Oc2cc(NC(=O)c3nn(C)cc3[N+](=O)[O-])cc([N+](=O)[O-])c2)cc1
EC50 [18]: 8.9 µM (inconclusive) | EC50 [19]: 0.219 µM (active) | EC50 [20]: 0.17 µM (active) | IC50 [21]: 1.08 µM (active) | IC50 [22]: 17.4 µM (not active) | EC50 [23]: 8.91 µM (active) | AC50 [24]: 8.94 µM (active) | AC50 [25]: 0.813 µM (active) | AC50 [26]: 21.1 µM (active) | AC50 [27]: 5.01 µM (active)
